Experimental data reported in patent publication US20220047569A1, “METHOD AND COMPOUND FOR USE, IN TREATING AND/OR PREVENTING NETOSIS” (Jubilant EpiPad LLC, priority 2020, published 2022).

The compounds below were run on Histone H3 Citrullination in Neutrophils (assay: Citrullination ELISA (Citrullinated Histone H3) in calcium ionophore stimulated neutrophils). Details: Neutrophil; human neutrophils, 25 μM calcium ionophore, CitH3 ELISA.
Assay type: cell-based
How it was run: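 Freshly isolated human donor neutrophils in RPMI with 2% BSA and 1 mM CaCl2 were pre-incubated 30 min with compound (10, 1, 0.1 μM), then stimulated 30 min with 25 μM calcium ionophore. After S7 nuclease digestion, lysates were assayed by citrullinated histone H3 ELISA (450 nm); IC50 from sigmoidal fits.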

| SMILES | IC50 [nM] |
| --- | --- |
| COc1ccc2cc(-c3nc4cc(C(=O)N5CCC[C@@H](N)C5)cc5c4n3CCO5)n(Cc3ccc(F)cc3)c2c1 [Compound 137, (R)-(3-aminopiperidin-1-yl)(2-(1-(4-fluorobenzyl)-6-methoxy-1H-indol-2-yl)-3,4-dihydro-5-oxa-1,2a-diazaacenaphthylen-7-yl)methanone] | > 1000 |
| N[C@@H]1CCCN(C(=O)c2cc3c4c(c2)nc(-c2cc5cc(/C=C/c6ccccc6)ccc5n2CC2CC2)n4CCO3)C1 [Compound 144, (R,E)-(3-aminopiperidin-1-yl)(2-(1-(cyclopropylmethyl)-5-styryl-1H-indol-2-yl)-3,4-dihydro-5-oxa-1,2a-diazaacenaphthylen-7-yl)methanone] | < 100 |
| COc1ccc2c(c1)cc(-c1nc3cc(C(=O)N4CCC[C@@H](N)C4)cc4c3n1CCO4)n2CC1CC1 [Compound 146, (R)-(3-aminopiperidin-1-yl)(2-(1-(cyclopropylmethyl)-5-methoxy-1H-indol-2-yl)-3,4-dihydro-5-oxa-1,2a-diazaacenaphthylen-7-yl)methanone] | 100 to 1000 |
| N[C@@H]1CCCN(C(=O)c2cc3c4c(c2)nc(-c2cc5ccc(CO)cc5n2CC2CC2)n4CCO3)C1 [Compound 147, (R)-(3-aminopiperidin-1-yl)(2-(1-(cyclopropylmethyl)-6-(hydroxymethyl)-1H-indol-2-yl)-3,4-dihydro-5-oxa-1,2a-diazaacenaphthylen-7-yl) methanone] | 100 to 1000 |
| N[C@@H]1CCCN(C(=O)c2cc3c4c(c2)nc(-c2cc5ccccc5n2CC2CC2)n4CCN3)C1 [Compound 149, (R)-(3-aminopiperidin-1-yl)(2-(1-(cyclopropylmethyl)-1H-indol-2-yl)-5,6-dihydro-4H-imidazo[1,5,4-de]quinoxalin-8-yl)methanone] | 100 to 1000 |
| N[C@@H]1CCCN(C(=O)c2cc3c4c(c2)nc(-c2cc5cc(F)ccc5n2CC2CC2)n4CCN3)C1 [Compound 150, (R)-(3-aminopiperidin-1-yl)(2-(1-(cyclopropylmethyl)-5-fluoro-1H-indol-2-yl)-5,6-dihydro-4H-imidazo[1,5,4-de]quinoxalin-8-yl)methanone] | 100 to 1000 |
| N[C@@H]1CCCN(C(=O)c2cc3c4c(c2)nc(-c2cc5ccc(F)cc5n2CC2CC2)n4CCN3)C1 [Compound 151, (R)-(3-aminopiperidin-1-yl)(2-(1-(cyclopropylmethyl)-6-fluoro-1H-indol-2-yl)-5,6-dihydro-4H-imidazo[1,5,4-de]quinoxalin-8-yl)methanone] | < 100 |

Now from value to compound:

| IC50 [nM] | SMILES |
| --- | --- |
| < 100 | N[C@@H]1CCCN(C(=O)c2cc3c4c(c2)nc(-c2cc5ccc(F)cc5n2Cc2ccc(F)cc2)n4CCO3)C1 [Compound 135, (R)-(3-aminopiperidin-1-yl)(2-(6-fluoro-1-(4-fluorobenzyl)-1H-indol-2-yl)-3,4-dihydro-5-oxa-1,2a-diazaacenaphthylen-7-yl)methanone] |
| > 1000 | COc1ccc(Cn2c(-c3nc4cc(C(=O)N5CCC[C@@H](N)C5)cc5c4n3CCO5)cc3ccc(F)cc32)cc1 [Compound 136, (R)-(3-aminopiperidin-1-yl)(2-(6-fluoro-1-(4-methoxybenzyl)-1H-indol-2-yl)-3,4-dihydro-5-oxa-1,2a-diazaacenaphthylen-7-yl)methanone] |
| > 1000 | CC(C)Cn1c(-c2nc3cc(C(=O)N4CCC[C@@H](N)C4)cc4c3n2CCO4)cc2cccc(Cl)c21 [Compound 141, (R)-(3-aminopiperidin-1-yl)(2-(7-chloro-1-isobutyl-1H-indol-2-yl)-3,4-dihydro-5-oxa-1,2a-diazaacenaphthylen-7-yl)methanone] |
| < 100 | Cc1csc(Cn2c(-c3nc4cc(C(=O)N5CCC[C@@H](N)C5)cc5c4n3CCO5)cc3ccccc32)n1 [Compound 145, (R)-(3-aminopiperidin-1-yl)(2-(1-((4-methylthiazol-2-yl)methyl)-1H-indol-2-yl)-3,4-dihydro-5-oxa-1,2a-diazaacenaphthylen-7-yl)methanone] |
